These results are taken from patent publication US6410791B1, “Nitric esters and nitrate salts of specific drugs” (priority 1998, dated 2002).

Counter-ions that a name gives are not always drawn.

The subject of one data set is tracheal secretion. In words: Mucolitic activity: phenol red in the tracheal secretion. To be noted: male mice, 264 micromoles/Kg i.p. ten minutes before phenol red 500 mg/Kg i.p.; % variation of absorbance versus control group = 100%. It is filed as in vivo. How it is done: Mucolitic activity in male mice was evaluated according to the Method of Engler and Zselenyi, J. Pharm. Methods 11, 151, 1984. By this method it is determined the quantity of phenol red in the tracheal secretion. The animals were previously administered i.p. at a dose of 500 mg/Kg with the dye dissolved in physiologic solution. 3 groups of mice (weight 18±2 g), of 10 animal each, were treated i.p. with the dye. One group was the control group. Each of the two treated groups received, ten minutes before the above injection, an i.p. injection of 264 micromoles/Kg of Ambroxol nitrate or Ambroxol hydrochloride, respectively. 30 minutes after the phenol red injection, the animals were sacrificed. The trachea was freed from the surrounding tissues, dissected and washed for 30 minutes in 3 ml of physiologic solution. 0.1 ml of 1 M sodium hydroxide were then added to the physiologic solution. The washings were centrifuged for 15 minutes at 3000 rpm. A spectrophotometric assay was performed on the supernatant in order to determine the concentration of phenol red in the physiologic solution. Mucolitic activity was determined as % variation of absorbance of the sample in the confront of that of the control group, assumed to be 100%.

A further data set has as its system histamine. Nature of the data set: Antihistaminic activity: experimental bronchoconstriction after i.v. histamine. In kind it is in vivo. The settings on record: guinea pig, histamine 2 μg/Kg i.v., compound endovenously, percent values with respect to the control (vehicle = 100).
The test system of data set [1] is cough stroke caused by the aerosol (citric acid). Nature of the data set: Anti-tussive activity: cough strokes caused by citric acid aerosol. It is filed as in vivo, Guinea pigs. The settings on record: guinea pig, citric acid 7.5% aerosol, 110 micromoles/Kg i.p., 30 minutes after injection, counted for 10 minutes; control group = 100%. Here is the method: Guinea pigs (weight 430+20) were treated as described by Braga et Al. Arzneim. Forsch./Drug Res. 43, 550, 1993.
In this pharmacological experiment 5 groups of 8 animals each were formed. One group was not treated and was the control group.
Each animal was placed in a cylindrical glass container having one tubing through each of the two circular flat surfaces. Said tubing were, respectively, for the aerosol inlet and outlet. The outlet tubing is connected to a polygraphic system.
The aerosol was formed from a solution 7.5% by weight of citric acid in water.
The air variation inside the glass container was registered before and after a cough stroke caused by the aerosol. One hour later Dextromethorphan hydrochloride, Dextromethorphan nitrate, Dextrorphan hydrochloride and dextrorphan nitrate were i.p. administered in a physiologic solution at a dose of 110 micromoles/Kg. 30 minutes after the injection the animals were treated with the aerosol. It was then registered the number of cough strokes for a time of 10 minutes. In the following Table III are reported the average response obtained from each treated group, referred to that of the control group, made 100%.

In data set [2] the test system is bronchoconstrictive response induced by capsaicin. Nature of the data set: Experimental bronchoconstriction induced by capsaicin (tidal air variation, Konzett apparatus). To be noted: guinea pig, capsaicin 1 μg/Kg i.v., 0.3 nmoles/min i.v. infusion for 15 minutes; percent values with respect to the control (carrier = 100). It is filed as in vivo. How it is done: (§1) Each groups consisted of eight animals. […] For a total 15 minutes, starting from 5 minutes before capsaicin injection to 10 minutes after) Salbutamol (0.3 nmoles/min), or the corresponding nitrate salt (0.3 nmoles/min) or only the carrier were administered by intravenous infusion were administered to each group.
The heart frequency was determined by an electrocardiographic device, according to the usual methods. The average value of the heart frequency following administration of the vehicle was of 188±7 beats per minute.

A further data set has as its system heart frequency. In words: Heart frequency (tachycardia) by electrocardiographic device during the capsaicin bronchoconstriction test. In kind it is in vivo. The settings on record: guinea pig, 0.3 nmoles/min i.v. infusion for 15 minutes; percent values with respect to the control (carrier = 100; vehicle 188±7 beats per minute). How it is done: as §1
The heart frequency was determined by an electrocardiographic device, according to the usual methods.

Regarding `Nc1c(Br)cc(Br)cc1CN[C@H]1CC[C@H](O)CC1` [Ambroxol hydrochloride], the “Mucolitic activity (%)” value in the data set with tracheal secretion was found to be 30%. Turning to `Nc1c(Br)cc(Br)cc1CNC1CCC(O)CC1` (stereo not drawn) [Ambroxol nitrate], the “Mucolitic activity (%)” value in the data set on tracheal secretion was 0%. Consider `O=C(O)COCCN1CCN(C(c2ccccc2)c2ccc(Cl)cc2)CC1` (stereo not drawn) [Cetirizine hydrochloride], for which, in the data set on histamine (hydrochloride), the “Broncocostriction (%)” value came to 40%. On to `O=C(O)COCCN1CCN(C(c2ccccc2)c2ccc(Cl)cc2)CC1` (stereo not drawn) [Cetirizine nitrate], for which, in the data set on histamine, the “Broncocostriction (%)” value is reported as 0%.

In the case of `COc1ccc2c(c1)[C@]13CCCC[C@@H]1[C@H](C2)N(C)CC3` [Dextromethorphan hydrochloride], in data set [1], the “cough strokes (%)” value is recorded as 30%. The same measure, in the same setting: the figure for `COc1ccc2c(c1)[C@@]13CCCC[C@H]1[C@@H](C2)N(C)CC3` [Dextromethorphan nitrate] is 0%; for `CN1CC[C@@]23CCCC[C@@H]2[C@@H]1Cc1ccc(O)cc13` [Dextrorphan hydrochloride] it is 40%.

Take `CN1CC[C@]23CCCC[C@H]2[C@H]1Cc1ccc(O)cc13` [Dextrorphan nitrate]: the “cough strokes (%)” value in data set [1] is given as 0%. As for `CC(C)(C)NCC(O)c1ccc(O)c(CO)c1` (stereo not drawn) [Salbutamol.HNO3, Salbutamol nitrate], in data set [2], the “Bronchoconstriction (%)” value was 0%. In the data set on heart frequency, the “Tachycardia (%)” value is recorded as 97%. For `CC(C)(C)NCC(O)c1ccc(O)c(CO)c1` (stereo not drawn) [Salbutamol], the “Bronchoconstriction (%)” value in data set [2] was 0%. In addition, the “Tachycardia (%)” value in the data set with heart frequency amounted to 116%.
